Patent US10351559B2, “Maleate salts of a B-RAF kinase inhibitor, crystalline forms, methods of preparation, and uses therefore” (BeiGene, Ltd., priority 2015, dated 2019)
Structures can show the parent of a compound that is named as a salt.

What was measured:
[1] = tested on: P450 enzymes in rat liver; assay: P450 enzyme induction; assay type: in vitro ADME
[2] = short-term stability study (1 week, 60° C. and 40° C./75% RH); assay type: physicochemical; conditions: for TRS %: sesqui-maleate salt
Protocol: Weighed about 2 mg (For XRPD: 10 mg) of each of the above salts in a 40 mL glass vial, separately. The free base form was used as control. The closed samples were capped and sealed with parafilm, while the opened samples were covered by aluminum foil with pinhole. All the samples were stored in stability chamber or dry oven at the corresponding conditions (60° C. and 40° C./75% RH) for 1 week.

[3] = tested on: human Calu-6 lung adenocarcinoma (K-RAS mutation) tumors; assay: xenograft efficacy study, combination; assay type: in vivo, BALB/C nude mice; conditions: Calu-6 tumors
Protocol: (§1) Human cancer cells were inoculated subcutaneously in the right axilla region of BALB/C nude mice to generate tumor xenografts. On the day of implantation, the cell culture medium was replaced with fresh medium. Three hours later, the media was removed and the cells were collected and re-suspended in cold (4° C.) PBS prior to inoculation. The right axilla region of each mouse was cleaned with 70% ethanol prior to cell inoculation. Each animal was injected subcutaneously with desired cells in 200 μl of cell suspension in the right front flank via a 26-gauge needle. After implantation tumor volumes were measured twice weekly in two dimensions using a calliper. Tumor volume was calculated using the formula: V=0.5×(a×b^2) where a and b are the long and short diameters of the tumor, respectively.
For in vivo efficacy studies, when the average tumor size reaches 100˜200 mm^3, animals were assigned into desired number of groups with 6-10 mice per group using a stratified randomization procedure. […] Body weight was assessed immediately before dosing and the volume dosed was adjusted accordingly. Individual body weights and tumor volumes were determined twice weekly, with mice being monitored daily for clinical signs of toxicity for the duration of the study. […] All group data was analyzed using the t test. […]
Tumor growth inhibition (TGI) was calculated using the following formula: […]

[4] = tested on: EGFR phosphorylation in A431 cells; assay: cellular phospho-EGFR TR-FRET assay; assay type: cell-based; conditions: Homo sapiens, A-431; EGFR overexpressing A431 cells, 1 h treatment
Protocol: (§2) A375, Sk-Mel-28, HT29, Colo205, A431, and HCC827 cell lines were purchased from American Type Culture Collection. All the cell lines used in the cellular assays were cultured in the designated medium supplemented with 10% fetal bovine serum (FBS, Thermo Scientific), 100 units/mL penicillin (Gibco), 0.1 mg/mL streptomycin (Gibco) and in a humidified 37° C. environment with 5% CO2. Cell lines were reinstated from frozen stocks laid down within three passages from the original cells purchased and passaged no more than 30 times.
(§3) Cellular phospho-ERK and phospho-EGFR were measured using a TR-FRET-based method. Cells were seeded at 3×10^4 per well of a 96-well plate and left to attach for 16 hours. Growth medium was then replaced with 100 μL of medium containing no serum. Cells were then treated with a 10-point titration of compound. After 1 h of compound treatment, 50 μL of lysis buffer (Cisbio) were added to each well. Plates were then incubated at room temperature with shaking for 30 min. A total of 16 μL of cell lysate from each well of a 96-well plate was transferred to a 384-well small volume white plate. […] FRET signals were measured using a PHERAstar FS reader (BMG Labtech). IC50 values for ERK or EGFR phosphorylation was determined using GraphPad Prism software.

[5] = tested on: EGFR phosphorylation in HCC827 cells; assay: cellular phospho-EGFR TR-FRET assay; assay type: cell-based; conditions: Homo sapiens; EGFR mutant HCC827 lung cancer cells, 1 h treatment
Protocol: as §2, §3

[6] = tested on: p-ERK in Calu-6 K-RAS mutant non-small cell lung adenocarcinoma xenograft models; assay: PD study, p-ERK in tumor tissue, combination; assay type: in vivo, mice; conditions: Calu-6 xenograft, with MEK inhibitor AZD6244
Protocol: as §1
For PD study, when the average tumor size reaches 140-900 mm^3, animals were assigned into desired number of groups with 4 mice per group using a stratified randomization procedure. The groups consisted of a control group (no drug treatment), and different dose levels of Crystalline Form A* of Compound 1 Sesqui-Maleate treatment groups (ranged from 1-20 mg/kg). All doses were based on free-base weight. Drugs were administered by oral gavage once (qd) or twice (bid) daily. […] Body weight was assessed immediately before dosing and the volume dosed was adjusted accordingly. […]

O=C1CCc2c(Oc3ccc4c(c3)[C@@H]3[C@H](O4)[C@H]3c3nc4ccc(C(F)(F)F)cc4[nH]3)ccnc2N1 [5-(((1R,1aS,6bR)-1-(6-(trifluoromethyl)-1H-benzo[d]imidazol-2-yl)-1a,6b-dihydro-1H-cyclopropa[b]benzofuran-5-yl)oxy)-3,4-dihydro-1,8-naphthyridin-2(1H)-one sesqui-maleate salt]
induction effect on P450 enzymes [1]: No significant induction effect | TRS % ([2]; 0 day): 0.08% | TRS % ([2]; 40° C./75% RH, 1 week): 0.10% | TRS % ([2]; 60° C., 1 week): 0.17% | chemical degradation ([2]; after one week at 60° C. and 40° C./75% RH): did not show degradations | appearance by visual observation ([2]; both conditions after 1 week): no change | antitumor activity in combination ([3]; combined with docetaxel): remarkable antitumor activity | antitumor activity in combination ([3]; combined with the MEK inhibitor selumetinib (AZD6244)): remarkable antitumor activity | IC50 [4]: 385 nM | IC50 [5]: 161 nM | effect on inhibiting p-ERK in combination [6]: strong synergistic effect
